In ChEMBL document CHEMBL1201862, “PubChem BioAssay data set” (2004):
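Cells were grown in 96-well plates and exposed to each compound for 48 hours at five concentrations; endpoints were interpolated linearly between bracketing concentrations, or set to the highest concentration if not reached. The concentration for 50% growth inhibition is given as GI50.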 Calls of active or inactive are those of the source. No stated cut-off is given here; in the data, active = GI50 up to about 1.1 µM and inactive = higher.

Tests used:
Assay in all cases: inhibition of tumour cell growth, NCI panel, 48 h
A498 = system: A498
COLO 205 = system: COLO 205
HCT-116 = system: HCT-116
HL-60 = system: HL-60
MOLT-4 = system: MOLT-4
Malme-3M = system: Malme-3M
NCI-H226 = system: NCI-H226
NCI-H23 = system: NCI-H23
NCI-H460 = system: NCI-H460
NCI/ADR-RES = system: NCI/ADR-RES
SK-MEL-28 = system: SK-MEL-28
SK-MEL-2 = system: SK-MEL-2
SN12C = system: SN12C
SNB-19 = system: SNB-19
UACC-62 = system: UACC-62
UO-31 = system: UO-31
786-0 = system: 786-0
ACHN = system: ACHN
DU-145 = system: DU-145
PC-3 = system: PC-3

Compound | GI50 (A498) | GI50 (COLO 205) | GI50 (HCT-116) | GI50 (HL-60) | GI50 (MOLT-4) | GI50 (Malme-3M) | GI50 (NCI-H226) | GI50 (NCI-H23) | GI50 (NCI-H460) | GI50 (NCI/ADR-RES) | GI50 (SK-MEL-28) | GI50 (SK-MEL-2) | GI50 (SN12C) | GI50 (SNB-19) | GI50 (UACC-62) | GI50 (UO-31) | GI50 (786-0) | GI50 (ACHN) | GI50 (DU-145) | GI50 (PC-3)
C=C1C(=O)O[C@H]2C1[C@H](OC(=O)/C(C)=C\COC(C)=O)C[C@]1(CO1)[C@@H]1[C@H](O)[C@H]3O[C@@]3(C)[C@@H]12 (some centres undefined) | 61.5 µM (inactive) | 8.73 µM (inactive) | 13.1 µM (inactive) | 13.9 µM (inactive) | 19.5 µM (inactive) | 20.7 µM (inactive) | 26.8 µM (inactive) | 14.3 µM (inactive) | 33.4 µM (inactive) | 21.4 µM (inactive) | 15.5 µM (inactive) | 20.7 µM (inactive) | 22.3 µM (inactive) | > 100 µM (inactive) | 15.8 µM (inactive) | > 88.7 µM (inactive) |  |  |  | 
O=C(CN1CCCCC1)Nc1ccc2sc3ccccc3c(=O)c2n1 |  | 10.8 µM (inactive) | 9.23 µM (inactive) | 17.1 µM (inactive) | 2.69 µM (inactive) | 32.1 µM (inactive) |  | 16.9 µM (inactive) | 13.2 µM (inactive) | 7.82 µM (inactive) | 17.3 µM (inactive) | 18.6 µM (inactive) | 12.5 µM (inactive) | 19.9 µM (inactive) | 15.4 µM (inactive) | 9.95 µM (inactive) | 12.9 µM (inactive) | 14.2 µM (inactive) | 20.3 µM (inactive) | 10.9 µM (inactive)
C=C1C(=O)OC2/C=C(\C)CC(O)/C=C(/CO)CC(OC(=O)/C(C)=C/C)C12 (centres undefined) | 26.8 µM (inactive) | 19.3 µM (inactive) | 29.6 µM (inactive) | 13.3 µM (inactive) | 18.2 µM (inactive) | 18.9 µM (inactive) | 30 µM (inactive) | 27.7 µM (inactive) | 36 µM (inactive) | 130 µM (inactive) | 14.8 µM (inactive) | 51.9 µM (inactive) | 131 µM (inactive) | 114 µM (inactive) | 37.8 µM (inactive) | 173 µM (inactive) |  |  |  | 
Nc1ccc(S(=O)(=O)Nc2nc3ccccc3nc2N2CCCCCC2)cc1 |  | 16.6 µM (inactive) | 16.6 µM (inactive) | 19.1 µM (inactive) | 16 µM (inactive) | 34.4 µM (inactive) | 34.7 µM (inactive) | 9.06 µM (inactive) | 23.4 µM (inactive) | 30.8 µM (inactive) | 18.5 µM (inactive) | 20 µM (inactive) | 11 µM (inactive) | 32.7 µM (inactive) | 18.1 µM (inactive) | 13.2 µM (inactive) | 30.2 µM (inactive) | 35.9 µM (inactive) | 30.9 µM (inactive) | 29.8 µM (inactive)
CC(C)(C)c1cc(S(=O)(=O)O)c2oc(-c3ccccc3)cc(=O)c2c1 |  | > 100 µM (inactive) | > 100 µM (inactive) | > 100 µM (inactive) | > 100 µM (inactive) | > 100 µM (inactive) | > 100 µM (inactive) | > 100 µM (inactive) | > 100 µM (inactive) | > 100 µM (inactive) | > 100 µM (inactive) |  | > 100 µM (inactive) | > 100 µM (inactive) |  | > 100 µM (inactive) | > 100 µM (inactive) | > 100 µM (inactive) | > 100 µM (inactive) | > 100 µM (inactive)
CCOC(=O)[C@@]12CCC(C1=O)[C@](C)(O)C[C@@H]2c1ccccc1 |  | 44.4 µM (inactive) | 32.6 µM (inactive) | 24.3 µM (inactive) | 30.5 µM (inactive) | 37.6 µM (inactive) | > 100 µM (inactive) | 66.5 µM (inactive) | 39.2 µM (inactive) | 29 µM (inactive) | 79.3 µM (inactive) | 38.1 µM (inactive) | 24.8 µM (inactive) | 43.7 µM (inactive) | 29.7 µM (inactive) | > 100 µM (inactive) | 23.1 µM (inactive) | 53.2 µM (inactive) | 85.9 µM (inactive) | 34 µM (inactive)
COc1ccc2[nH]c3c4c(ccc3c2c1)C(=O)C=CC4=O | 31.3 µM (inactive) | 5.3 µM (inactive) | 3.62 µM (inactive) | 0.439 µM (active) | 0.448 µM (active) | 7.73 µM (inactive) | 21.6 µM (inactive) | 12.7 µM (inactive) | 24.8 µM (inactive) |  | 8.2 µM (inactive) | 13.8 µM (inactive) | 11 µM (inactive) | 40.5 µM (inactive) | 16.7 µM (inactive) | 14.8 µM (inactive) | 11.4 µM (inactive) | 4.76 µM (inactive) | 34.8 µM (inactive) | 18.7 µM (inactive)
COc1cc(C=O)ccc1Oc1nnnn1-c1ccccc1 |  | > 100 µM (inactive) | 29.8 µM (inactive) |  | 23.1 µM (inactive) | 84.1 µM (inactive) | < 0.01 µM (active) | 46 µM (inactive) | > 100 µM (inactive) | 38.5 µM (inactive) | 72.4 µM (inactive) | > 100 µM (inactive) | > 100 µM (inactive) | 54.8 µM (inactive) |  | 94.4 µM (inactive) | > 100 µM (inactive) |  | 32.1 µM (inactive) | 82.4 µM (inactive)
CN(C)CC1(C)CC/C(=C\c2ccc(Cl)cc2)C1=O (centres undefined) | 49.1 µM (inactive) | 17.4 µM (inactive) | 34.3 µM (inactive) | 19.7 µM (inactive) | 20.5 µM (inactive) | > 100 µM (inactive) | > 100 µM (inactive) | 57.4 µM (inactive) | 24.4 µM (inactive) |  | > 100 µM (inactive) | > 100 µM (inactive) | 51.3 µM (inactive) | 20.3 µM (inactive) | 28.5 µM (inactive) | 45.8 µM (inactive) | 59.2 µM (inactive) | 44.9 µM (inactive) |  | 
O=C(CCC1OCCO1)Nc1cc(NCc2ccccc2)ccc1OCc1ccccc1 | 30.5 µM (inactive) | 22.3 µM (inactive) | 48.9 µM (inactive) | 38.5 µM (inactive) | 20.5 µM (inactive) | 20.6 µM (inactive) | 38.4 µM (inactive) | 31.7 µM (inactive) | 39.1 µM (inactive) | 43.1 µM (inactive) | 64.7 µM (inactive) | 21 µM (inactive) | 46.8 µM (inactive) | 40.3 µM (inactive) | 28.1 µM (inactive) | 33.9 µM (inactive) | > 100 µM (inactive) | 33.5 µM (inactive) | 50.5 µM (inactive) | 
Cc1cn(C2CC(O)C(COC(=O)NCCC(F)(F)C(F)(F)C(F)(F)C(F)(F)F)O2)c(=O)[nH]c1=O (centres undefined) | > 100 µM (inactive) | > 100 µM (inactive) | 88.5 µM (inactive) | > 100 µM (inactive) | > 100 µM (inactive) | > 100 µM (inactive) | > 100 µM (inactive) | > 100 µM (inactive) | > 100 µM (inactive) |  | > 100 µM (inactive) |  | > 100 µM (inactive) | > 100 µM (inactive) | > 100 µM (inactive) | > 100 µM (inactive) | > 100 µM (inactive) | > 100 µM (inactive) | > 100 µM (inactive) | > 100 µM (inactive)
